23 compounds from patent publication US8969565B2, “Imidazo[1,2-b]pyridazine-based compounds, compositions comprising them, and methods of their use” (Lexicon Pharmaceuticals, Inc., priority 2012, dated 2015) can be followed below.

Each structure is given as a SMILES string. pIC50: −log10 of the molar value.

Test [1] deals with T1, AAK1 (Homo sapiens, UniProt Q2M2I8).
T1 construct: HA; expressed in transfected cells; host or cells: HEK293F
The test can be described thus: P81 filter plate assay. Type of test: biochemical. The settings on record: full-length human AAK1, Mu2 substrate.

In test [2] the target is T1, AAK1. The test can be described thus: HEK281 cell-based assay (phospho-mu2 Western blot in transfected HEK293F cells). Conditions: 3 hours incubation, read-out: CBA IC50. The method, boiled down: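 After 3 hours at 37° C. with compound (five 3-fold-spaced concentrations, DMEM+0.5% FBS), transiently transfected HEK293F cells expressing full-length human AAK1 and Flag-tagged mu2 were lysed. mu2 phosphorylation was read by anti-phospho-mu2 immunoblot, normalized against total mu2 by anti-Flag blot.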
On the technique in general: Immunoblotting shows a protein as a band on a membrane.

T1 sequence (Q2M2I8 1-863 isoform Q2M2I8-2): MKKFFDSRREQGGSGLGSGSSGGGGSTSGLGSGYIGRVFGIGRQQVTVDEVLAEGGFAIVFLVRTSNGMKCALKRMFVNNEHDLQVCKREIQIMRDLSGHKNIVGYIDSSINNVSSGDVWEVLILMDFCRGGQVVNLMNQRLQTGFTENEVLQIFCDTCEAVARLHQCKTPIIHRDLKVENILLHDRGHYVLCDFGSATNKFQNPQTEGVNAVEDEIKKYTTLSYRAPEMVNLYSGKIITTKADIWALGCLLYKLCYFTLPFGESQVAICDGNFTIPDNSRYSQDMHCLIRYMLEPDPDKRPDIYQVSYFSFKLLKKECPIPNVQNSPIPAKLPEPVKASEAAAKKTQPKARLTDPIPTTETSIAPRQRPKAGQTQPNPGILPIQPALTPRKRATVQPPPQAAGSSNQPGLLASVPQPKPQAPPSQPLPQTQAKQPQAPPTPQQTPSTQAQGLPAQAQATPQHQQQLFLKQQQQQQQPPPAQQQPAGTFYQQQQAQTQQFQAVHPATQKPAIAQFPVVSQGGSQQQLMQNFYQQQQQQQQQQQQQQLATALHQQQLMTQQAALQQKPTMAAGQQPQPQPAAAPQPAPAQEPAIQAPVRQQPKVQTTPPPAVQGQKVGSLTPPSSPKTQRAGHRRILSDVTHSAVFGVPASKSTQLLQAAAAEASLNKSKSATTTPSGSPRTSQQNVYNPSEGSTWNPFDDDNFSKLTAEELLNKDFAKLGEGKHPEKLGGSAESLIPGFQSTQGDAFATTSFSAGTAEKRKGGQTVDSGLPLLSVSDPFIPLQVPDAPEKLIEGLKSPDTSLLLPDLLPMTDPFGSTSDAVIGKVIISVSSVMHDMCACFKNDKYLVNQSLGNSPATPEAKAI

Turning to `CC(C)CC(=O)N1CCC[C@H]1CNc1ccc2ncc(-c3cccc(F)c3)n2n1` [(S)-1-(2-(((3-(3-fluorophenyl)imidazo[1,2-b]pyridazin-6-yl)amino)methyl)pyrrolidin-1-yl)-3-methylbutan-1-one], the negative-log IC50 (pIC50) against AAK1 [1] and on AAK1 [2] was no less than 8.00 in each case.
Consider `COc1cccc(-c2cnc3ccc(NC[C@@H]4CCCN4C(=O)CC(C)C)nn23)c1` [(S)-1-(2-(((3-(3-methoxyphenyl)imidazo[1,2-b]pyridazin-6-yl)amino)methyl)pyrrolidin-1-yl)-3-methylbutan-1-one], for which the negative logarithm of the IC50 (pIC50) (commonly −log10 of the IC50, conventionally taken in molar units) is no less than 8.00 on AAK1 [1] and no less than 7.00 on AAK1 [2].
The corresponding values for `CC(C)(C)C(=O)N1CCC[C@H]1CNc1ccc2ncc(-c3ccc(CN)cc3)n2n1` [(S)-1-(2-(((3-(4-(aminomethyl)phenyl)imidazo[1,2-b]pyridazin-6-yl)amino)methyl)pyrrolidin-1-yl)-2,2-dimethylpropan-1-one] are no less than 8.00 and no less than 7.00.
The corresponding values for `CC(C)(C)CC(=O)N1CCC[C@H]1CNc1ccc2ncc(-c3ccc(CN)cc3)n2n1` [(S)-1-(2-(((3-(4-(aminomethyl)phenyl)imidazo[1,2-b]pyridazin-6-yl)amino)methyl)pyrrolidin-1-yl)-3,3-dimethylbutan-1-one] are no less than 8.00 and no less than 7.00.
As for `CCCC(=O)N1CCC[C@H]1CNc1ccc2ncc(-c3ccc(CN)cc3)n2n1` [(S)-1-(2-(((3-(4-(aminomethyl)phenyl)imidazo[1,2-b]pyridazin-6-yl)amino)methyl)pyrrolidin-1-yl)butan-1-one], the negative-log IC50 (pIC50) against AAK1 [1] and on AAK1 [2] was no less than 8.00 each time.
Consider `CC(C)CC(=O)N1CCC[C@H]1CNc1ccc2ncc(-c3ccc(F)cc3)n2n1` [(S)-1-(2-(((3-(4-fluorophenyl)imidazo[1,2-b]pyridazin-6-yl)amino)methyl)pyrrolidin-1-yl)-3-methylbutan-1-one], for which the results for the pIC50 at AAK1 [1] and on AAK1 [2] were no less than 8.00 and no less than 7.00, respectively.
On to `COc1ccc(-c2cnc3ccc(NC[C@@H]4CCCN4C(=O)CC(C)C)nn23)cc1` [(S)-1-(2-(((3-(4-methoxyphenyl)imidazo[1,2-b]pyridazin-6-yl)amino)methyl)pyrrolidin-1-yl)-3-methylbutan-1-one], for which the figures for the pIC50 against AAK1 [1] and at AAK1 [2] were no less than 8.00 and no less than 6.00, respectively.
The corresponding values for `COc1ncccc1-c1cnc2ccc(NC[C@@H]3CCC(=O)N3CCC(C)(C)C)nn12` [(S)-1-(3,3-dimethylbutyl)-5-(((3-(2-methoxypyridin-3-yl)imidazo[1,2-b]pyridazin-6-yl)amino)methyl)pyrrolidin-2-one] are no less than 8.00 and no less than 8.00.
Regarding `CC(C)(C)CCN1C(=O)CC[C@H]1CNc1ccc2ncc(-c3ccccc3)n2n1` [(S)-1-(3,3-dimethylbutyl)-5-(((3-phenylimidazo[1,2-b]pyridazin-6-yl)amino)methyl)pyrrolidin-2-one], the negative-log IC50 (pIC50) on AAK1 [1] is no less than 8.00; on AAK1 [2], no less than 6.00.
Taken in the same sequence, the figures for `CC(=O)c1cnc2ccc(N3CCN(C(=O)[C@@H](N)C(C)C)CC3)nn12` [(S)-1-(4-(3-acetylimidazo[1,2-b]pyridazin-6-yl)piperazin-1-yl)-2-amino-3-methylbutan-1-one] were no less than 8.00 and no less than 7.00.
Taken in the same sequence, the figures for `CC1(OC(=O)N2CCC[C@H]2CNc2ccc3ncc(Br)n3n2)CCCC1` [(S)-1-methylcyclopentyl 2-(((3-bromoimidazo[1,2-b]pyridazin-6-yl)amino)methyl)pyrrolidine-1-carboxylate] were no less than 8.00 and no less than 6.00.
The corresponding values for `COc1ncccc1-c1cnc2ccc(N3CC[C@H](N(C)C(=O)OCC(F)(F)F)C3)nn12` [(S)-2,2,2-trifluoroethyl (1-(3-(2-methoxypyridin-3-yl)imidazo[1,2-b]pyridazin-6-yl)pyrrolidin-3-yl)(methyl)carbamate] are no less than 8.00 and no less than 7.00.
In the case of `CC(C)(C)NC(=O)N1CCC[C@H]1CNc1ccc2ncc(Br)n2n1` [(S)-2-(((3-bromoimidazo[1,2-b]pyridazin-6-yl)amino)methyl)-N-(tert-butyl)pyrrolidine-1-carboxamide], the pIC50 on AAK1 [1] is no less than 8.00; at AAK1 [2] it was no less than 7.00.
Taken in the same sequence, the figures for `COc1ncccc1-c1cnc2ccc(N3CCN(C(=O)[C@@H](N)CC(C)C)CC3)nn12` [(S)-2-amino-1-(4-(3-(2-methoxypyridin-3-yl)imidazo[1,2-b]pyridazin-6-yl)piperazin-1-yl)-4-methylpentan-1-one] were no less than 8.00 and no less than 8.00.
The corresponding values for `O=C(CC(F)(F)F)N1CCC[C@H]1CNc1ccc2ncc(-c3ccccc3)n2n1` [(S)-3,3,3-trifluoro-1-(2-(((3-phenylimidazo[1,2-b]pyridazin-6-yl)amino)methyl)pyrrolidin-1-yl)propan-1-one] are no less than 8.00 and no less than 8.00.
With `CC(C)(C)CC(=O)N1CCC[C@H]1CNc1ccc2ncc(-c3ccncc3)n2n1` [(S)-3,3-dimethyl-1-(2-(((3-(pyridin-4-yl)imidazo[1,2-b]pyridazin-6-yl)amino)methyl)pyrrolidin-1-yl)butan-1-one], the negative logarithm of the IC50 (pIC50) against AAK1 [1] is no less than 8.00; on AAK1 [2] it was no less than 7.00.
The corresponding values for `CC(C)CC(=O)N1CCC[C@H]1CNc1ccc2ncc(-c3cccc(C#N)c3)n2n1` [(S)-3-(6-(((1-(3-methylbutanoyl)pyrrolidin-2-yl)methyl)amino)imidazo[1,2-b]pyridazin-3-yl)benzonitrile] are no less than 8.00 and no less than 7.00.
On to `Cc1cc(-c2cnc3ccc(NC[C@@H]4CCCN4C(=O)CC(C)C)nn23)ccn1` [(S)-3-methyl-1-(2-(((3-(2-methylpyridin-4-yl)imidazo[1,2-b]pyridazin-6-yl)amino)methyl)pyrrolidin-1-yl)butan-1-one], for which the negative-log IC50 (pIC50) is no less than 8.00 against AAK1 [1] and no less than 7.00 at AAK1 [2].
The corresponding values for `Cc1cccc(-c2cnc3ccc(NC[C@@H]4CCCN4C(=O)CC(C)C)nn23)c1` [(S)-3-methyl-1-(2-(((3-(m-tolyl)imidazo[1,2-b]pyridazin-6-yl)amino)methyl)pyrrolidin-1-yl)butan-1-one] are no less than 8.00 and no less than 6.00.
Taken in the same sequence, the figures for `CC(C)CC(=O)N1CCC[C@H]1CNc1ccc2ncc(-c3ccccc3)n2n1` [(S)-3-methyl-1-(2-(((3-phenylimidazo[1,2-b]pyridazin-6-yl)amino)methyl)pyrrolidin-1-yl)butan-1-one] were no less than 8.00 and no less than 7.00.
In the case of `CC(C)CC(=O)N1CCC[C@H]1CNc1ccc2ncc(-c3ccc(C#N)cc3)n2n1` [(S)-4-(6-(((1-(3-methylbutanoyl)pyrrolidin-2-yl)methyl)amino)imidazo[1,2-b]pyridazin-3-yl)benzonitrile], the negative logarithm of the IC50 (pIC50) against AAK1 [1] and at AAK1 [2] was no less than 8.00 in each case.
Take `CC(C)(C)CCN1C(=O)CC[C@H]1CNc1ccc2ncc(-c3ccc(CN)cc3)n2n1` [(S)-5-(((3-(4-(aminomethyl)phenyl)imidazo[1,2-b]pyridazin-6-yl)amino)methyl)-1-(3,3-dimethylbutyl)pyrrolidin-2-one]: the negative-log IC50 (pIC50) is no less than 8.00 at AAK1 [1] and no less than 7.00 at AAK1 [2].
On to `CC(C)CCN1C(=O)CC[C@H]1CNc1ccc2ncc(-c3ccc(CN)cc3)n2n1` [(S)-5-(((3-(4-(aminomethyl)phenyl)imidazo[1,2-b]pyridazin-6-yl)amino)methyl)-1-isopentylpyrrolidin-2-one], for which the pIC50 at AAK1 [1] was no less than 8.00; at AAK1 [2], no less than 7.00.
